Laboratory results published in PMC12392461, “Beyond Estrogenicity: A Comparative Assessment of Bisphenol A and Its Alternatives in In Vitro Assays Questions Safety of Replacements” (Environmental Science & Technology, 2025).
Like-named read-outs stand apart in the source and are kept apart here.

Experiments:
[1] = system: HEK293H (PPARγ); settings: for Toxic ratio (TR) TRPPARγ: against baseline cytotoxicity; for IC10, HEK293, PPARγ: cytotoxicity, HEK293 (PPARγ assay cells)
In short: (§1)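 Cells were seeded in 384-well plates for 24 h, then dosed in 11-step dilutions and exposed for 24 h at 37 °C. Viability came from IncuCyte confluency before and after exposure. Only concentrations below IC10 were used for EC10 or, for ARE, the concentration giving induction ratio 1.5 (ECIR1.5).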

[2] = system: H4IIe (AhR CALUX); settings: for IC10, linear: linear model fit; for Toxic ratio (TR) TRAhR: against baseline cytotoxicity
In short: as §1

[3] = system: HEK293T (ERα); settings: for Toxic ratio (TR) TRERα: against baseline cytotoxicity; for IC10, HEK293, ERα: HEK293 (ERα assay cells)
In short: as §1

[4] = system: MCF7 (ARE/MMP); settings: for Toxic ratio (TR) TRARE / Toxic ratio (TR) TRMMP: against baseline cytotoxicity; for Toxic ratio (TR) TRARE: ARE readout; for Toxic ratio (TR) TRMMP: MMP readout
In short: as §1

[5] = target: T1, Peroxisome proliferator-activated receptor γ (Homo sapiens, UniProt P37231); test: cell-based; settings: for EC10, PPARγ (M): 10% of maximum effect of rosiglitazone; for EC10, linear transformed / EC10, linear / logEC10: PPARγ bioassay, dosing range all; for EC10, linear: linear model; for logEC10: log-logistic model; for SR-ScorePPARγ: SR-Score, sigma k=1, x=5; for Specificity ratio (SRbaseline) SRPPARγ: against baseline cytotoxicity; for Specificity ratio (SRcytotoxicity) SRPPARγ: against experimental cytotoxicity; for EC10, PPARγ: effect; for log(1/EC10) PPARγ: input of the ToxPi score, values up to 1.00; for Emax: read-out: Emax%PPARγ
T1 sequence (P37231 238-505 limits assumed): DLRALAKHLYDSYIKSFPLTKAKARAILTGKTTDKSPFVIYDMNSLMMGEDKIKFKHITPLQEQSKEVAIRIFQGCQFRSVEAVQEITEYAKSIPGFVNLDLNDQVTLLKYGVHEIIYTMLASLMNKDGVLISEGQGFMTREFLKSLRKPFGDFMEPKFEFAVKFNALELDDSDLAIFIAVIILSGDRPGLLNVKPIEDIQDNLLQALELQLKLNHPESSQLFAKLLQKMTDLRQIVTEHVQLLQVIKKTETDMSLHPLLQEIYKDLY
In short: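 ERα-UAS-bla GripTite and PPARγ-UAS-bla β-lactamase reporter cells were seeded and held 24 h at 37 °C, 5% CO₂ before dosing. EC10 values used only concentrations below the IC10 from IncuCyte confluency. Emax% is the log-logistic curve maximum relative to the reference chemical's maximum.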

[6] = PPARγ bioassay cytotoxicity, dosing range all
[7] = PPARγ bioassay cytotoxicity, dosing range all, linear model
[8] = PPARγ bioassay cytotoxicity, dosing range all, log-logistic model
[9] = Bioassay AhR, cytotoxicity, dosing range all
[10] = Bioassay AhR, cytotoxicity, dosing range all, log-logistic model fit
[11] = Bioassay ERα, cytotoxicity, dosing range all
[12] = Bioassay ERα, cytotoxicity, dosing range all, linear model fit
[13] = Bioassay ERα, cytotoxicity, dosing range all, log-logistic model fit
[14] = Bioassay ARE, cytotoxicity, dosing range all, linear model fit
[15] = Bioassay ARE, cytotoxicity, dosing range all, log-logistic model fit
[16] = MMP bioassay cytotoxicity, dosing range all, linear model
[17] = MMP bioassay cytotoxicity, dosing range all, log-logistic model

O=C(OCc1ccccc1)c1ccc(O)cc1 [BzPB, Benzyl 4-hydroxybenzoate]
IC10, linear transformed [1, 6]: 3.90E-06
IC10, linear [1, 7]: 3.41E-05
logIC10 [1, 8]: -4.33
Toxic ratio (TR) TRPPARγ [1]: 0.35
IC10, HEK293, PPARγ [1]: 46.8 µM
IC10, linear transformed [2, 9]: 2.87E-04
IC10, linear [2, 9]: 1.74E-04
logIC10 [2, 10]: -3.54
Toxic ratio (TR) TRAhR [2]: 0.19
IC10, H4IIe, AhR ([2]; cytotoxicity, H4IIe (AhR assay cells)): 174 µM
IC10, linear transformed [3, 11]: 1.15E-05
IC10, linear [3, 12]: 4.80E-05
logIC10 [3, 13]: -4.38
Toxic ratio (TR) TRERα [3]: 0.39
IC10, HEK293, ERα ([3]; cytotoxicity): 42.1 µM
IC10, linear transformed ([4]; Bioassay ARE, cytotoxicity, dosing range all): 8.95E-05
IC10, linear [4, 14]: 1.23E-04
logIC10 [4, 15]: -4.05
IC10, linear transformed ([4]; MMP bioassay cytotoxicity, dosing range all): 2.97E-04
IC10, linear [4, 16]: 1.94E-04
logIC10 [4, 17]: -3.53
Toxic ratio (TR) TRARE [4]: 0.38
Toxic ratio (TR) TRMMP [4]: 0.11
IC10, MCF7, ARE ([4]; cytotoxicity, MCF7, ARE readout): 89.5 µM
IC10, MCF7, MMP ([4]; cytotoxicity, MCF7, MMP readout): 297 µM
EC10, PPARγ (M) [5]: 2.04 × 10^–6 M
EC10, linear transformed [5]: 2.04E-06
EC10, linear [5]: 2.87E-06
logEC10 [5]: -5.69
SR-ScorePPARγ [5]: 1.00
Specificity ratio (SRbaseline) SRPPARγ [5]: 8.14
Specificity ratio (SRcytotoxicity) SRPPARγ [5]: 22.95
EC10, PPARγ [5]: 2.04 µM
log(1/EC10) PPARγ [5]: 0.80
Emax [5]: 16%

CC(C)Oc1ccc(S(=O)(=O)c2ccc(O)cc2)cc1 [D8, 4-((4-Isopropoxyphenyl)sulfonyl)phenol]
IC10, linear [1]: no cytotoxicity
Toxic ratio (TR) TRPPARγ [1]: 0.93
logIC10 ([1]; human, 24 h): -4.15
Toxic ratio (TR) TRAhR [2]: 2.94
logIC10 ([2]; rat, 24 h): -4.56
IC10, linear [3]: no cytotoxicity
Toxic ratio (TR) TRERα [3]: 0.36
logIC10 ([3]; human, 24 h): -3.73
Toxic ratio (TR) TRARE [4]: 0.06
Toxic ratio (TR) TRMMP [4]: 0.06
logIC10 ([4]; human, 24 h): -2.67
EC10, linear [5]: 5.40E-06
logEC10 [5]: no effect

Cc1ccc(S(=O)(=O)NC(=O)Nc2cccc(OS(=O)(=O)c3ccc(C)cc3)c2)cc1 [Pergafast, N-(p-toluenesulfonyl)-N'-(3-(p-toluenesulfonyloxy)phenyl)urea]
IC10, linear transformed [1, 6]: 1.21E-06
IC10, linear [1, 7]: 2.22E-05
logIC10 [1, 8]: -4.72
Toxic ratio (TR) TRPPARγ [1]: 2.74
IC10, HEK293, PPARγ [1]: 19.1 µM
IC10, linear [2, 9]: no cytotoxicity
logIC10 [2, 10]: no cytotoxicity
IC10, linear transformed [3, 11]: 8.23E-06
IC10, linear [3, 12]: 1.21E-05
logIC10 [3, 13]: -4.96
Toxic ratio (TR) TRERα [3]: 4.31
IC10, HEK293, ERα ([3]; cytotoxicity): 12.1 µM
IC10, linear [4, 14]: 4.06E-05
logIC10 [4, 15]: no cytotoxicity
IC10, linear [4, 16]: no cytotoxicity
logIC10 [4, 17]: no cytotoxicity
EC10, PPARγ (M) [5]: 6.71 × 10^–7 M
EC10, linear transformed [5]: 6.71E-07
EC10, linear [5]: 9.42E-07
logEC10 [5]: -6.17
SR-ScorePPARγ [5]: 1.00
Specificity ratio (SRbaseline) SRPPARγ [5]: 77.74
Specificity ratio (SRcytotoxicity) SRPPARγ [5]: 28.39
EC10, PPARγ [5]: 0.671 µM
log(1/EC10) PPARγ [5]: 0.87
Emax [5]: 16%
